Target: T1, VEGFR3 cytoplasmic domain (Homo sapiens, UniProt P35916)
T1 construct: VEGFR3 cytoplasmic domain (amino acids 798-1298) was purchased as N-terminal GST-fusion protein; GST (N); purchased
Experiment: VEGFR3 biochemical assay (AlphaScreen)
Details: GST-VEGFR3 cytoplasmic domain, 500 μM ATP (modified form: His-fusion, 1 μM ATP)
Description: Compounds of the invention may be tested for in vitro activity in the following assay: A biotin labelled peptide is used as substrate (amino acid sequence: Biotin-[…]NH2). VEGFR3 cytoplasmic domain (amino acids 798-1298) was purchased as N-terminal GST-fusion protein (“the enzyme”). The 15 μL assay reactions are run in Greiner brand white 384-well low volume plates. All reactions contained 10 mM HEPES pH 7.4, 10 mM MgCl2, 0.01% (v/v) Tween-20, 50 μM Na3VO4, 0.01% (w/v) albumin from chicken egg white, 1 mM Dithiothreitol, 111 nM peptide substrate, 500 μM ATP, and 3.8 ng/reaction enzyme, with the enzyme being omitted from negative control reactions. Compounds were added in a volume of […] from dilution series prepared in DMSO, positive and negative control reactions receiving the same volume DMSO without compound. The plates were sealed with adhesive seals and incubated for 90 minutes at 30 degree Celsius. The reactions were stopped with the detection reagents added at the same time as follows: Product formation was quantified as amplified luminescence between PerkinElmer AlphaScreen™ beads, using Streptavidin-coated donor and anti-phosphotyrosine (P-Tyr-100) acceptor beads. To each reaction, 5 μL containing 10 mM HEPES pH 7.4, 25 mM NaCl, 100 mM EDTA, 0.01% (v/v) Tween-20, and 6.25 μg/mL of each bead type were added. Plates were incubated for 6 hours before being read on a PerkinElmer EnVision™ plate reader in HTS Alphascreen™ mode. IC50 values were obtained by calculating percent inhibition (% I) for each reaction relative to controls on the same plate (% I=(I-CN)/(CP-CN) where CN/CP are the averages of the negative/positive reactions, respectively), then fitting the % I data vs. compound concentration [I] to % I=(A+((B−A)/(1+((C/[I])̂D)))) where A is the lower asymptote, B is the upper asymptote, C is the IC50 value, and D is the slope factor.
The above assay was also run in a modified form in some cases (indicated below with *). In these cases, VEGFR3 cytoplasmic domain (amino acids 818-1177, lacking 949-1002 of UniProt accession number P35916) was expressed and purified as N-terminal Hexa-His-fusion protein (“the enzyme”), rather than using the N-terminal GST-fusion protein. The assay conditions were the same as above but with 1 μM ATP and 8 ng/reaction of the enzyme.

T1 sequence (P35916 798-1298 isoform P35916-1): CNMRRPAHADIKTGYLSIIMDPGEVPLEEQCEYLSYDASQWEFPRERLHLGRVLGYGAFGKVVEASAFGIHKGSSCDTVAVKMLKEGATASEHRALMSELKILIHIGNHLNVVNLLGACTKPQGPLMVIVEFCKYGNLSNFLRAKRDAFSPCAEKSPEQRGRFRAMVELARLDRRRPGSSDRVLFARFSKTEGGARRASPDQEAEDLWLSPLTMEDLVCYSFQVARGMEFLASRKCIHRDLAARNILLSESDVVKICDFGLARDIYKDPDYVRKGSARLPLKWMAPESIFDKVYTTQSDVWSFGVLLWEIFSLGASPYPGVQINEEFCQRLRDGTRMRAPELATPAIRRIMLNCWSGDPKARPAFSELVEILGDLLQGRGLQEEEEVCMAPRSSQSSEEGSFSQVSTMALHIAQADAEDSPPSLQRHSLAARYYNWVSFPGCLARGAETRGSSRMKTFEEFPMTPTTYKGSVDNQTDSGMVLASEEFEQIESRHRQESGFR

IC50 [nM]	SMILES
37	NC(=O)Cc1ccccc1CCc1nc(Nc2ccc(C3CNC3)cc2)ncc1C(F)(F)F [Compound 20, 2-(2-(2-(2-((4-(azetidin-3-yl)phenyl)amino)-5-(trifluoromethyl)pyrimidin-4-yl)ethyl)phenyl)acetamide]
67	CN1CCC(c2ccc(Nc3ncc(C(F)(F)F)c(CCc4cc(C(F)(F)F)ccc4CC(N)=O)n3)cc2)CC1 [Compound 17, 2-(2-(2-(2-((4-(1-methylpiperidin-4-yl)phenyl)amino)-5-(trifluoromethyl)pyrimidin-4-yl)ethyl)-4-(trifluoromethyl)phenyl)acetamide]
278	NC(=O)Cc1cc(C(F)(F)F)ccc1CCc1nc(Nc2ccc(C3CCNCC3)cc2)ncc1C(F)(F)F [Compound 25, 2-(2-(2-(2-((4-(piperidin-4-yl)phenyl)amino)-5-(trifluoromethyl)pyrimidin-4-yl)ethyl)-5-(trifluoromethyl)phenyl)acetamide]
26	NC(=O)Cc1cccc(F)c1CCc1nc(Nc2ccc(C3CCNCC3)cc2)ncc1C(F)(F)F [Compound 41]
34	CN1CCC(c2ccc(Nc3ncc(C(F)(F)F)c(CCc4ccccc4CC(N)=O)n3)cc2F)CC1 [Compound 8, 2-(2-(2-(2-((3-fluoro-4-(1-methylpiperidin-4-yl)phenyl)amino)-5-(trifluoromethyl)pyrimidin-4-yl)ethyl)phenyl)acetamide]
161	NC(=O)Cc1ccccc1CCc1ccnc(Nc2ccc(N3CCNCC3)cc2)n1 [Compound 1, 2-(2-(2-(2-((4-(piperazin-1-yl)phenyl)amino)pyrimidin-4-yl)ethyl)phenyl)acetamide]
81	CN1CCC(c2ccc(Nc3ncc(C(F)(F)F)c(CCc4ccccc4CC(N)=O)n3)cn2)CC1 [Compound 14, 2-(2-(2-(2-((6-(1-methylpiperidin-4-yl)pyridin-3-yl)amino)-5-(trifluoromethyl)pyrimidin-4-yl)ethyl)phenyl)acetamide]
76	CN1CCC(c2ccc(Nc3ncc(C(F)(F)F)c(CCc4ccc(F)cc4CC(N)=O)n3)cc2)CC1 [Compound 10, 2-(5-fluoro-2-(2-(2-((4-(1-methylpiperidin-4-yl)phenyl)amino)-5-(trifluoromethyl)pyrimidin-4-yl)ethyl)phenyl)acetamide]
187	CC(N)c1ccc(Nc2ncc(C(F)(F)F)c(CCc3ccccc3CC(N)=O)n2)cn1 (stereo not drawn) [Compound 40, 2-(2-(2-(2-((6-(1-Aminoethyl)pyridin-3-yl)amino)-5-(trifluoromethyl)pyrimidin-4-yl)ethyl)phenyl)acetamide]
72	COc1cnc(Nc2ccc(C3CCNCC3)cc2)nc1CCc1ccccc1CC(N)=O [Compound 23, 2-(2-(2-(5-methoxy-2-((4-(piperidin-4-yl)phenyl)amino)pyrimidin-4-yl)ethyl)phenyl)acetamide]
40	NC(=O)Cc1ccccc1CCc1nc(Nc2ccc(C3CCNCC3)c(F)c2)ncc1C(F)(F)F [Compound 7, 2-(2-(2-(2-((3-Fluoro-4-(piperidin-4-yl)phenyl)amino)-5-(trifluoromethyl)pyrimidin-4-yl)ethyl)phenyl)acetamide]
10	CC(=O)NC(C)c1cccc(Nc2ncc(Cl)c(CCc3ccccc3CC(N)=O)n2)c1 (stereo not drawn) [Compound 39, 2-(2-(2-(2-((3-(1-acetamidoethyl)phenyl)amino)-5-chloropyrimidin-4-yl)ethyl)phenyl)acetamide]
31	NC(=O)Cc1ccc(F)cc1CCc1nc(Nc2ccc(C3CCNCC3)cc2)ncc1C(F)(F)F [Compound 15, 2-(4-fluoro-2-(2-(2-((4-(piperidin-4-yl)phenyl)amino)-5-(trifluoromethyl)pyrimidin-4-yl)ethyl)phenyl)acetamide]

SMILES	IC50 [nM]
Cc1cnc(Nc2ccc(C(C)N)cc2)nc1CCc1ccccc1CC(N)=O (stereo not drawn) [Compound 34, 2-(2-(2-(2-((4-(1-aminoethyl)phenyl)amino)-5-methylpyrimidin-4-yl)ethyl)phenyl)acetamide]	71
Cc1cnc(Nc2ccc(CN)cc2)nc1CCc1ccccc1CC(N)=O [Compound 27, 2-(2-(2-(2-((4-(aminomethyl)phenyl)amino)-5-methylpyrimidin-4-yl)ethyl)phenyl)acetamide]	118
NC(=O)Cc1ccccc1CCc1nc(Nc2cnn(C3CCNCC3)c2)ncc1C(F)(F)F [Compound 35, 2-(2-(2-(2-((1-(piperidin-4-yl)-^1H-pyrazol-4-yl)amino)-5-(trifluoromethyl)pyrimidin-4-yl)ethyl)phenyl)acetamide]	23
Cc1cnc(Nc2cnn(C3CNC3)c2)nc1CCc1ccccc1CC(N)=O [Compound 30, 2-(2-(2-(2-((1-(azetidin-3-yl)-^1H-pyrazol-4-yl)amino)-5-methylpyrimidin-4-yl)ethyl)phenyl)acetamide]	9
CC(N)c1cccc(Nc2ncc(Cl)c(CCc3ccccc3CC(N)=O)n2)c1 (stereo not drawn) [Compound 38, 2-(2-(2-(2-((3-(1-aminoethyl)phenyl)amino)-5-chloropyrimidin-4-yl)ethyl)phenyl)acetamide]	76
CN1CCC(n2cc(Nc3ncc(C(F)(F)F)c(CCc4ccccc4CC(N)=O)n3)cn2)CC1 [Compound 36, 2-(2-(2-(2-((1-(1-methylpiperidin-4-yl)-^1H-pyrazol-4-yl)amino)-5-(trifluoromethyl)pyrimidin-4-yl)ethyl)phenyl)acetamide]	50
COC(=O)NC1(c2ccc(Nc3ncc(C)c(CCc4ccccc4CC(N)=O)n3)cc2)CCC1 [Compound 29, methyl 1-(4-(4-(2-(2-amino-2-oxoethyl)phenethyl)-5-methylpyrimidin-2-ylamino)phenyl)cyclobutylcarbamate]	17
Cc1cnc(Nc2ccc(C3CNC3)cc2)nc1CCc1ccccc1CC(N)=O [Compound 32, 2-(2-(2-(2-((4-(azetidin-3-yl)phenyl)amino)-5-methylpyrimidin-4-yl)ethyl)phenyl)acetamide]	52

Reference: patent publication US20150225377A1, “VEGFR3 INHIBITORS” (CANCER THERAPEUTICS CRC PTY LIMITED, priority 2012, published 2015)
